Values after ≈ are worked out from the molar mass of the structure shown. Read-outs that look alike come from different tables or passages of the source.
Tested on: A. baumannii AB5075
Experiment: Resistance studies (agar plates and 21-day serial passaging)
Format: cell-based, Acinetobacter baumannii
Details: for MIC: Acinetobacter baumannii
Procedure: To test for spontaneous development of resistance to PGG, A. baumannii AB5075 was inoculated on agar plates containing PGG at 0.5×MIC, 1×MIC, and 2×MIC (128, 256, and 512 μg/mL, respectively), and a control plate containing no PGG. […] Next, evolution of resistance was tested by serial passaging A. baumannii AB5075 for 21 days in the presence of a PGG gradient, using culture from the 0.5×MIC treatment for each subsequent passage. Serial passaging with a tetracycline gradient served as a control.

With `CN(C)[C@@H]1C(O)=C(C(N)=O)C(=O)[C@@]2(O)C(O)=C3C(=O)c4c(O)cccc4[C@@](C)(O)[C@H]3C[C@@H]12` [tetracycline, reference compound] the “fold increase in MIC” value (A. baumannii, after 10 passages) was 16 fold, the MIC (AB5075, read-out: Base MIC) was 4 µg/mL (≈ 9 µM) and the MIC (AB5075, read-out: MIC after serial passaging) was 64 µg/mL (≈ 144 µM).
